# Measurements reported in ChEMBL document CHEMBL1150179, “The cytotoxic principles of Solanum incanum” (1990).
# Experiments:
# [1] = Cytotoxicity against human PLC/PRF/5 cells by microassay; format: functional; settings: read-out: ED50 (the source's name)
# [2] = system: KB; assay: Cytotoxicity against human KB cells by microassay; format: functional; settings: read-out: ED50 (the source's name)
Compound,EC50 [1],EC50 [2]
C[C@@H]1CC[C@@]2(NC1)O[C@H]1C[C@H]3[C@@H]4CC=C5C[C@@H](O[C@@H]6O[C@H](CO)[C@@H](O[C@@H]7O[C@@H](C)[C@H](O)[C@@H](O)[C@H]7O)[C@H](O)[C@H]6O)CC[C@]5(C)[C@H]4CC[C@]3(C)[C@H]1[C@@H]2C [KHASIANINE],8.6 µg/mL,
C[C@H]1[C@H](C)CC[C@]2(C(=O)O)CC[C@]3(C)C(=CC[C@@H]4[C@@]5(C)CC[C@H](O)C(C)(C)[C@@H]5CC[C@]43C)[C@H]12 [URSOLIC ACID],3.89 µg/mL,3.76 µg/mL
C[C@@H]1CC[C@]2(NC1)O[C@H]1C[C@H]3[C@@H]4CC=C5C[C@@H](O)CC[C@]5(C)[C@H]4CC[C@]3(C)[C@H]1[C@@H]2C [SOLASODINE],3.75 µg/mL,3.74 µg/mL
CCC(=O)O[C@H]1CC[C@]2(C)[C@H]3CC=C4[C@@H]5[C@@H](C)[C@H](C)CC[C@]5(C(=O)O)CC[C@@]4(C)[C@]3(C)CC[C@H]2C1(C)C,2.54 µg/mL,
CCCCCCCCCCCCCCCC(=O)O[C@H]1CC[C@]2(C)[C@H]3CC=C4[C@@H]5[C@@H](C)[C@H](C)CC[C@]5(C(=O)O)CC[C@@]4(C)[C@]3(C)CC[C@H]2C1(C)C,3.54 µg/mL,
CC[C@H](C[C@@H](O)[C@@H](C)[C@H]1CC[C@H]2C3=CC(=O)[C@H]4[C@H](C)[C@@H](OC(=O)c5ccccc5)CC[C@]4(C)[C@H]3CC[C@]12C)C(C)C [CARPESTEROL],8.47 µg/mL,
C[C@H]1[C@H](C)CC[C@]2(C(=O)O)CC[C@]3(C)C(=CC[C@@H]4[C@@]5(C)CC[C@H](OC(=O)c6ccccc6)C(C)(C)[C@@H]5CC[C@]43C)[C@H]12,6.89 µg/mL,
C[C@H]1[C@H](C)CC[C@]2(C(=O)O)CC[C@]3(C)C(=CC[C@@H]4[C@@]5(C)CC[C@H](OC(=O)/C=C/c6ccccc6)C(C)(C)[C@@H]5CC[C@]43C)[C@H]12,7.24 µg/mL,
C/C=C/C(=O)O[C@H]1CC[C@]2(C)[C@H]3CC=C4[C@@H]5[C@@H](C)[C@H](C)CC[C@]5(C(=O)O)CC[C@@]4(C)[C@]3(C)CC[C@H]2C1(C)C,2.59 µg/mL,
C[C@@H]1CC[C@@]2(NC1)O[C@H]1C[C@H]3[C@@H]4CC=C5C[C@@H](O[C@@H]6O[C@H](CO)[C@@H](O[C@@H]7O[C@@H](C)[C@H](O)[C@@H](O)[C@H]7O)[C@H](O)[C@H]6O[C@@H]6O[C@@H](C)[C@H](O)[C@@H](O)[C@H]6O)CC[C@]5(C)[C@H]4CC[C@]3(C)[C@H]1[C@@H]2C [SOLAMARGINE],1.53 µg/mL,
